In patent US12239635B2, “Treatment of cognitive disorders using nitazoxanide (NTZ), nitazoxanide (NTZ) analogs, and metabolites thereof” (The Trustees of Columbia University in the City of New York, priority 2018, dated 2025):

What was measured:
[1] = literature (Stockis et al. and others); cited from earlier work
[2] = active metabolite following oral administration of Nitazoxanide; cited from earlier work
in vivo [3] = details: Sprague Dawley, rat, po; for AUC(0-inf): AUC0-∞; for AUC(0-t): AUClast
Experimental: A pharmacokinetic experiment was performed to determine Tizoxanide (TIZ, active metabolite of Nitazoxanide, NTZ) in rat brain and plasma following oral administration to Sprague Dawley (SD) rat.
An Nitazoxanide (NTZ) pill (Alinia) solution was prepared at a concentration of 14.5 mg/mL (10.0 mg/mL as Nitazoxanide (NTZ) for oral administration (per os, PO), ad libitum, in a mixture of 0.5% methyl cellulose and 99.5% saline. The PO dosing volume was 10 mL/kg. SD rats (n=3 per time point; weighing 0.161 to 0.171 kg) were fasted and oral administration was given using a gavage needle. Blood samples were collected from jugular vein and brain tissues were sampled at 0.33, 1 and 4 hrs after oral administration. Blood samples were centrifuged immediately and a 100 ul aliquot of plasma, and the brain tissues were stored −20° C. until the analysis. The concentration of Nitazoxanide (NTZ) and Tizoxanide (TIZ) in plasma and brain were determined by HPLC/MS/MS analysis. An Agilent 1200 HPLC with Zorbax C18 column and an API4000 tandem quadrupole mass spectrometer were used. The molecular ions of Nitazoxanide (NTZ), Tizoxanide (TIZ) and an internal standard (Chlorzoxazone) were fragmented and detected by monitoring the transitions for each compound. Peak areas were integrated using Analyst software version 1.5.1. (Applied Biosystems). The quantifiable range was from 0.001 to 3 μg/ml for plasma and brain samples. Plasma or brain concentration-time profile for each rat was analyzed (WinNonlin 4.1 program) to obtain pharmacokinetic profile parameters.
(§1) wherein Cmax indicates maximum plasma concentration observed, Tmax indicates time to Cmax, AUClast indicates the Area Under the Curve from zero to the last time point, AUC0-∞ indicates the total area under the plasma concentration time curve from zero to infinity, and T1/2 indicates terminal elimination half-life. […] Brain/Plasma ratio was calculated using the formula: (Brain AUClast)/(Plasma AUClast).

in vivo [4] = details: ICR, mouse, po; for AUC(0-inf): AUC0-∞; for AUC(0-t): AUClast
Experimental: as §1

O=C(Nc1ncc([N+](=O)[O-])s1)c1ccccc1O[C@@H]1O[C@H](C(=O)O)[C@@H](O)[C@H](O)[C@H]1O [Tizoxanide glucuronide (TIZ-G), Tizoxanide glucuronide]
Pharmacokinetic profile in humans [1]: excellent pharmacokinetic profiles
Tolerability in humans [1]: well-tolerated

O=C(Nc1ncc([N+](=O)[O-])s1)c1ccccc1O [Tizoxanide (TIZ), Tizoxanide]
Pharmacokinetic profile in humans [1]: excellent pharmacokinetic profiles
Tolerability in humans [1]: well-tolerated
Protein bound [2]: 99%
Brain/plasma ratio (in vivo [3]): 0.008
Tmax, brain (in vivo [3]): 0.53 ± 0.39 h
AUC(0-inf) (in vivo [3]; brain): 62.8 ng·h/mL
AUC(0-inf) (in vivo [3]; plasma): 5420 ng·h/mL
AUC(0-t) (in vivo [3]; brain): 17.9 ± 14.6 ng·h/mL
AUC(0-t) (in vivo [3]; plasma): 2320 ± 603 ng·h/mL
half-life (in vivo [3]; T1/2, brain): 2.85 h
half-life (in vivo [3]; T1/2, plasma): 3.86 h
Tmax (in vivo [3]; brain): 0.55 h
Tmax (in vivo [3]; plasma): 0.39 h
Brain/plasma ratio (in vivo [4]): 0.015
Cmax, plasma (in vivo [4]): 288.50 ± 227.73 ng/mL
Tmax, brain (in vivo [4]): 1.55 ± 2.12 h
AUC(0-inf) (in vivo [4]; brain): 9.06 ng·h/mL
AUC(0-inf) (in vivo [4]; plasma): 1000 ng·h/mL
AUC(0-t) (in vivo [4]; brain): 7.18 ± 5.62 ng·h/mL
AUC(0-t) (in vivo [4]; plasma): 485 ± 163 ng·h/mL
Cmax (in vivo [4]; Cmax, plasma): 228 ng/mL
half-life (in vivo [4]; T1/2, brain): 1.15 h
half-life (in vivo [4]; T1/2, plasma): 3.8 h
Tmax (in vivo [4]; brain): 1.78 h
Tmax (in vivo [4]; plasma): 0.67 h

CC(=O)Oc1ccccc1C(=O)Nc1ncc([N+](=O)[O-])s1 [Nitazoxanide (NTZ), [2-[(5-nitro-1,3-thiazol-2-yl)carbamoyl]phenyl]ethanoate]
Pharmacokinetic profile in humans [1]: excellent pharmacokinetic profiles
Tolerability in humans [1]: well-tolerated
Brain/plasma ratio (in vivo [3]): 0.008
Brain/plasma ratio (in vivo [4]): 0.015
